Results: patent US20250243196A1, “CITRON KINASE INHIBITORS” (The Cleveland Clinic Foundation, priority 2021, published 2025)

Target: Citron kinase (Homo sapiens (Human), UniProt O14578)
Assay: Radiometric citron kinase assay (Eurofins Cat #16-040KP)
Format: biochemical
Conditions: mean of at least two independent assays; read-out: Radiometric CitK IC50
Text: In some embodiments, the step of contacting the sample with the compound comprises administering the compound to a subject (e.g., a subject) suffering from cancer. Methods of determining kinase inhibition are well known in the art. For example, kinase activity of an enzyme and the inhibitory capacity of a test compound can be determined by measuring enzyme specific phosphorylation of a substrate. Commercial assays and kits can be employed. For example, kinase inhibition can be determined using a radiometric binding assay, such as using KinaseProfiler™ technology (Eurofins Discovery). This assay method directly detects product formation without the use of modified substrates or coupling enzymes. Test compounds are incubated with kinase, substrate, required cofactors and radioisotope labeled ATP. Following incubation, unreacted radioactive ATP is removed by washing and incorporation of the radiolabeled phosphate into the kinase substrate is assayed to detect phosphoryltransferase activity, which is directly proportional to the amount of phosphorylated substrate. Inhibition of the kinase by a kinase inhibitor prevents phosphorylation of the substrate and thereby limits the incorporation of radiolabeled phosphate. Such an assay is compatible with a microwell assay format, allowing simultaneous determination of IC50 of multiple compounds.
Compounds were screened for biochemical kinase activity (Eurofins Discovery, France) using one of two assays. […] All values in Table 1 are the mean of at least two independent assays.

Sequence of Citron kinase (O14578 whole entry): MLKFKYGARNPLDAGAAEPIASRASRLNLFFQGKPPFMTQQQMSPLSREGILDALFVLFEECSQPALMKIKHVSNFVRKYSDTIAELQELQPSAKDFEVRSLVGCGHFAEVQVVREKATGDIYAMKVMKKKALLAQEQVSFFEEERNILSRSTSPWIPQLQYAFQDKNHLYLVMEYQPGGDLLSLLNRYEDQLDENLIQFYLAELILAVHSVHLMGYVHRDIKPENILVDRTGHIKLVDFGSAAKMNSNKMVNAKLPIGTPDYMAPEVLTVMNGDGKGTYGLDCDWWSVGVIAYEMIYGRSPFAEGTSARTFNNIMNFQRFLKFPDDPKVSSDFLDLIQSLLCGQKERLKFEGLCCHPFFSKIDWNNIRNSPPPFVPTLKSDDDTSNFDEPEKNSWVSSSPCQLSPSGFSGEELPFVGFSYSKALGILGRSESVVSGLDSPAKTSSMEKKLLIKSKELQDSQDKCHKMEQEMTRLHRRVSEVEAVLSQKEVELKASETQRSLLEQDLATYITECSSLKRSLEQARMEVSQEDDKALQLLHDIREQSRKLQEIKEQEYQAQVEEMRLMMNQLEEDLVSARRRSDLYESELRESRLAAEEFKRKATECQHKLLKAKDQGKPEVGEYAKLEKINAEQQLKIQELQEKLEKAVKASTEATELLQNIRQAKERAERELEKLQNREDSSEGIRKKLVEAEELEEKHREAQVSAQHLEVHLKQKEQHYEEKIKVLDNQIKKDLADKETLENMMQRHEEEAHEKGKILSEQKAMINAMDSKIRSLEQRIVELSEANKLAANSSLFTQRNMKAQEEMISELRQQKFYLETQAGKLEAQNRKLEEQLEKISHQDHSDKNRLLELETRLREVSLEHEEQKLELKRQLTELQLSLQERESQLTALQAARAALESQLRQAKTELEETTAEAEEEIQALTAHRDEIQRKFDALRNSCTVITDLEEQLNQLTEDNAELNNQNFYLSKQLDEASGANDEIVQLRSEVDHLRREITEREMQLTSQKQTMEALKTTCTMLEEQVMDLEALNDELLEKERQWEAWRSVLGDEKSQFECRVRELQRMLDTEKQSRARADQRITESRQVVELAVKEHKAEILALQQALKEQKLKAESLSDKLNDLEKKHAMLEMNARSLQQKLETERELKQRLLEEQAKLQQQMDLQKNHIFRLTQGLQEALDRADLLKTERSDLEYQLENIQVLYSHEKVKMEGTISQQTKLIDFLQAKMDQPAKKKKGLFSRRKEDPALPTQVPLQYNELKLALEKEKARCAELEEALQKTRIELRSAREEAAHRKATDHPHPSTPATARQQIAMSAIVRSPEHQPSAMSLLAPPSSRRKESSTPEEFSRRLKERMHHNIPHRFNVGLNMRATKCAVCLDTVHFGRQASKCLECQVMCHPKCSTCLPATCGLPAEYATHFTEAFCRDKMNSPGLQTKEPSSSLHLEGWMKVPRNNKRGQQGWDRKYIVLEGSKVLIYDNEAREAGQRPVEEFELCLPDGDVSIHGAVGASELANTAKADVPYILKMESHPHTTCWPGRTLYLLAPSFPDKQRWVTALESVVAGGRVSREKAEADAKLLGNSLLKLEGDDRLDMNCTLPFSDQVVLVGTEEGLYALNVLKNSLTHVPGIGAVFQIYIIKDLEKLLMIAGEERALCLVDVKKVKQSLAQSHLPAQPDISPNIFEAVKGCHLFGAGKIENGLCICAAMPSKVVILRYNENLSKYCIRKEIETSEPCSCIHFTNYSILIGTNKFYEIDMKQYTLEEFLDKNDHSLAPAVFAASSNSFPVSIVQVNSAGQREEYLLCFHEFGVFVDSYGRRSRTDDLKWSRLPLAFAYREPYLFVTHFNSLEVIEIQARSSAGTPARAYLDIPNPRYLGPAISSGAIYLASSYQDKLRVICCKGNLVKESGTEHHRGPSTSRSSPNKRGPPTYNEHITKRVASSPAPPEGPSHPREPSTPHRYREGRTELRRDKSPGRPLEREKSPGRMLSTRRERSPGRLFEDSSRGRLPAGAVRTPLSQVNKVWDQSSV

Row | IC50 | SMILES
1 | 0.122 µM | Cc1cc2c(-c3csc(NC(=O)[C@H](N)C(C)(C)C)n3)ccnc2[nH]1 [Compound F-112, (2R)-2-Amino-3,3-dimethyl-N-[4-(2-methyl-1H-pyrrolo[2,3-b]pyridin-4-yl)thiazol-2-yl]butanamide]
2 | 1.06 µM | CN(C)CC(=O)Nc1ccc(-c2ccnc3[nH]ccc23)cc1 [Compound F-3, 2-(Dimethylamino)-N-[4-(1H-pyrrolo[2,3-b]pyridin-4-yl)phenyl]acetamide]
3 | 0.598 µM | COc1cc(NC(=O)[C@H](N)Cc2ccccc2)ccc1-c1ccnc2[nH]ccc12 [Compound F-128, (2R)-2-Amino-N-[3-methoxy-4-(1H-pyrrolo[2,3-b]pyridin-4-yl)phenyl]-3-phenyl-propanamide]
4 | 0.059 µM | COc1nc(NC(=O)[C@H](N)CC(C)(C)C)ccc1-c1ccnc2[nH]c(C(F)(F)F)cc12 [Compound F-154, (2R)-2-Amino-N-[6-methoxy-5-[2-(trifluoromethyl)-1H-pyrrolo[2,3-b]pyridin-4-yl]-2-pyridyl]-4,4-dimethyl-pentanamide]
5 | 0.026 µM | Cc1cc2c(-c3ccc(NC(=O)[C@H](N)CC(C)(C)C)cn3)ccnc2[nH]1 [Compound F-145, (2R)-2-Amino-4,4-dimethyl-N-(6-(2-methyl-1H-pyrrolo[2,3-b]pyridin-4-yl)pyridin-3-yl)pentanamide]
6 | 0.218 µM | CC(O)[C@@H](N)C(=O)Nc1ccc(-c2ccnc3[nH]ccc23)cc1 (stereo partly drawn) [Compound F-30, (2R)-2-Amino-3-hydroxy-N-[4-(1H-pyrrolo[2,3-b]pyridin-4-yl)phenyl]butanamide]
7 | 0.004 µM | CC(C)(C)C[C@@H](N)C(=O)Nc1ccc(-c2ccnc3[nH]c(C(F)F)cc23)cc1 [Compound F-143, (2R)-2-Amino-N-[4-[2-(difluoromethyl)-1H-pyrrolo[2,3-b]pyridin-4-yl]phenyl]-4,4-dimethyl-pentanamide]
8 | 0.022 µM | CC(C)(C)C[C@@H](N)C(=O)Nc1ccc(-c2ccnc3[nH]c(C(F)(F)F)cc23)cc1 [Compound F-144, (2R)-2-amino-4,4-dimethyl-N-[4-[2-(trifluoromethyl)-1H-pyrrolo[2,3-b]pyridin-4-yl]phenyl]pentanamide]
9 | 0.018 µM | Cc1cc(NC(=O)[C@H](N)CC(C)(C)C)ccc1-c1ccnc2[nH]c(C3CC3)cc12 [Compound F-142, (2R)-2-Amino-N-[4-(2-cyclopropyl-1H-pyrrolo[2,3-b]pyridin-4-yl)-3-methyl-phenyl]-4,4-dimethyl-pentanamide]
10 | 1.06 µM | Cc1cc(NC(=O)[C@H](N)C(C)(C)C)c(F)cc1-c1ccnc2[nH]ccc12 [Compound F-74, (2R)-2-Amino-N-[2-fluoro-5-methyl-4-(1H-pyrrolo[2,3-b]pyridin-4-yl)phenyl]-3,3-dimethyl-butanamide]
11 | 3 µM | COc1cc(NC(=O)[C@H](N)CC(C)(C)C)cnc1-c1ccnc2[nH]c(C)cc12 [Compound F-172, (2R)-2-Amino-N-[5-methoxy-6-(2-methyl-1H-pyrrolo[2,3-b]pyridin-4-yl)-3-pyridyl]-4,4-dimethyl-pentanamide]
12 | 0.0304 µM | Cc1cc(NC(=O)[C@H](N)CC(C)C)ccc1-c1ccnc2[nH]c(C(F)(F)F)cc12 [Compound F-98, (2R)-2-Amino-4-methyl-N-[3-methyl-4-[2-(trifluoromethyl)-1H-pyrrolo[2,3-b]pyridin-4-yl]phenyl]pentanamide]
13 | 0.018 µM | COc1nc(-c2ccnc3[nH]c(C)cc23)ccc1NC(=O)[C@H](N)CC(C)(C)C [Compound F-148, (2R)-2-Amino-N-[2-methoxy-6-(2-methyl-1H-pyrrolo[2,3-b]pyridin-4-yl)-3-pyridyl]-4,4-dimethyl-pentanamide]
14 | 0.266 µM | CC(C)(C)C[C@@H](N)C(=O)Nc1ccc(-c2ccnc3[nH]c(C(F)F)cc23)nc1 [Compound F-105, (2R)-2-Amino-N-[6-[2-(difluoromethyl)-1H-pyrrolo[2,3-b]pyridin-4-yl]-3-pyridyl]-4,4-dimethyl-pentanamide]
15 | 3 µM | CC(C)C[C@@H](NCC(F)(F)F)C(=O)Nc1ccc(-c2ccnc3[nH]ccc23)cc1 [Compound F-47, (2R)-4-Methyl-N-[4-(1H-pyrrolo[2,3-b]pyridin-4-yl)phenyl]-2-(2,2,2-trifluoroethylamino)pentanamide]
16 | 0.103 µM | Cc1cc(NC(=O)[C@H](N)CC(C)(C)C)ccc1-c1ccnc2[nH]c(C(F)(F)F)cc12 [Compound F-99, (2R)-2-Amino-4,4-dimethyl-N-[3-methyl-4-[2-(trifluoromethyl)-1H-pyrrolo[2,3-b]pyridin-4-yl]phenyl]pentanamide]

Row | IC50 | SMILES
17 | 0.113 µM | COc1nc(NC(=O)[C@H](N)CC(C)C)ccc1-c1ccnc2[nH]c(C(F)(F)F)cc12 [Compound F-155, (2R)-2-Amino-N-[6-methoxy-5-[2-(trifluoromethyl)-1H-pyrrolo[2,3-b]pyridin-4-yl]-2-pyridyl]-4-methyl-pentanamide]
18 | 0.172 µM | NC(C(=O)Nc1ccc(-c2ccnc3[nH]ccc23)cc1)C1(C(F)(F)F)CC1 (stereo not shown) [Compound F-23, 2-Amino-N-[4-(1H-pyrrolo[2,3-b]pyridin-4-yl)phenyl]-2-[1-(trifluoromethyl)cyclopropyl]acetamide]
19 | 0.108 µM | CC(C)(C)[C@@H](N)C(=O)Nc1ccc(-c2ccnc3[nH]c(C(F)(F)F)cc23)cc1 [Compound F-56, (2R)-2-Amino-3,3-dimethyl-N-[4-[2-(trifluoromethyl)-1H-pyrrolo[2,3-b]pyridin-4-yl]phenyl]butanamide]
20 | 0.059 µM | Cc1cc2c(-c3ccc(NC(=O)[C@H](N)C(C)(C)C)cc3)ccnc2[nH]1 [Compound F-50, (2R)-2-Amino-3,3-dimethyl-N-[4-(2-methyl-1H-pyrrolo[2,3-b]pyridin-4-yl)phenyl]butanamide]
21 | 0.0667 µM | N[C@H](CCC(F)(F)F)C(=O)Nc1ccc(-c2ccnc3[nH]ccc23)cc1 [Compound F-24, (2R)-2-Amino-5,5,5-trifluoro-N-[4-(1H-pyrrolo[2,3-b]pyridin-4-yl)phenyl]pentanamide]
22 | 0.037 µM | COc1cc(NC(=O)[C@H](N)CC(C)(C)C)ccc1-c1ccnc2[nH]ccc12 [Compound F-166, (2R)-2-Amino-N-[3-methoxy-4-(1H-pyrrolo[2,3-b]pyridin-4-yl)phenyl]-4,4-dimethyl-Pentanamide]
23 | 0.245 µM | CC(C)C[C@@H](N)C(=O)Nc1cccc(-c2ccnc3[nH]ccc23)c1 [Compound F-87, (2R)-2-Amino-4-methyl-N-[3-(1H-pyrrolo[2,3-b]pyridin-4-yl)phenyl]pentanamide]
24 | 3 µM | Cc1cc(NC(=O)[C@H](N)C(C)(C)C)cc(C)c1-c1ccnc2[nH]ccc12 [Compound F-138, (2R)-2-Amino-N-[3,5-dimethyl-4-(1H-pyrrolo[2,3-b]pyridin-4-yl)phenyl]-3,3-dimethyl-butanamide]
25 | 0.778 µM | CC(O)[C@H](N)C(=O)Nc1ccc(-c2ccnc3[nH]ccc23)cc1 (stereo partly drawn) [Compound F-29, (2S)-2-Amino-3-hydroxy-N-[4-(1H-pyrrolo[2,3-b]pyridin-4-yl)phenyl]butanamide]
26 | 0.111 µM | Cc1cc2c(-c3csc(NC(=O)[C@@H](N)C(C)(C)C)n3)ccnc2[nH]1 [Compound F-113, (2S)-2-Amino-3,3-dimethyl-N-[4-(2-methyl-1H-pyrrolo[2,3-b]pyridin-4-yl)thiazol-2-yl]butanamide]
27 | 0.694 µM | Cc1cc(NC(=O)[C@H](N)CC(C)C)c(F)cc1-c1ccnc2[nH]ccc12 [Compound F-73, (2R)-2-Amino-N-[2-fluoro-5-methyl-4-(1H-pyrrolo[2,3-b]pyridin-4-yl)phenyl]-4-methyl-pentanamide]
28 | 0.0231 µM | Cc1c(-c2ccnc3[nH]ccc23)ccc(NC(=O)[C@H](N)C(C)(C)C)c1F [Compound F-137, (2R)-2-Amino-N-[2-fluoro-3-methyl-4-(1H-pyrrolo[2,3-b]pyridin-4-yl)phenyl]-3,3-dimethyl-butanamide]
29 | 0.009 µM | COc1nc(-c2ccnc3[nH]c(C(F)F)cc23)ccc1NC(=O)[C@H](N)CC(C)(C)C [Compound F-150, (2R)-2-Amino-N-[6-[2-(difluoromethyl)-1H-pyrrolo[2,3-b]pyridin-4-yl]-2-methoxy-3-pyridyl]-4,4-dimethyl-pentanamide]
30 | 0.151 µM | Cc1cc(NC(=O)[C@H](N)C(C)(C)O)ccc1-c1ccnc2[nH]c(C(F)F)cc12 [Compound F-139, (2R)-2-Amino-N-[4-[2-(difluoromethyl)-1H-pyrrolo[2,3-b]pyridin-4-yl]-3-methyl-phenyl]-3-hydroxy-3-methyl-butanamide]
31 | 0.368 µM | Cc1cc2c(-c3csc(NC(=O)[C@H](N)CC(C)C)n3)ccnc2[nH]1 [Compound F-116, (2R)-2-Amino-4-methyl-N-[4-(2-methyl-1H-pyrrolo[2,3-b]pyridin-4-yl)thiazol-2-yl]pentanamide]

Row | SMILES | IC50
32 | CC[C@H](C)[C@H](N)C(=O)Nc1ccc(-c2ccnc3[nH]ccc23)cc1 [Compound F-10, (2S,3S)-2-Amino-3-methyl-N-[4-(1H-pyrrolo[2,3-b]pyridin-4-yl)phenyl]pentanamide] | 0.0919 µM
33 | C[C@H](N)C(=O)Nc1ccc(-c2ccnc3[nH]ccc23)cc1 [Compound F-4, (2S)-2-Amino-N-[4-(1H-pyrrolo[2,3-b]pyridin-4-yl)phenyl]propenamide] | 3 µM
34 | C[C@@H](N)C(=O)Nc1ccc(-c2ccnc3[nH]ccc23)cc1 [Compound F-5, (2R)-2-Amino-N-[4-(1H-pyrrolo[2,3-b]pyridin-4-yl)phenyl]propenamide] | 0.806 µM
